# Measured values taken from ChEMBL document CHEMBL3797052 (Eur J Med Chem, 2016).
# Test system: not listed separately
# Test: Antiproliferative activity against human Hs 578T cells assessed as cell growth at 10^-5 M after 48 hrs by sulforhodamine B assay
# Assay type: functional
# Settings: read-out: Activity
row,Compound,growth at 10 µM
1,CNC(=O)c1cc(Oc2ccc3nc(NC(=O)c4cc(C(F)(F)F)cc(C(F)(F)F)c4)sc3c2)ccn1,6%

# Test system: not listed separately
# Test: Antiproliferative activity against human SW620 cells assessed as cell growth at 10^-5 M after 48 hrs by sulforhodamine B assay
# Assay type: functional
# Settings: SW-620, 48 h, read-out: Activity
row,Compound,growth at 10 µM
1,CNC(=O)c1cc(Oc2ccc3nc(NC(=O)c4cc(C(F)(F)F)cc(C(F)(F)F)c4)sc3c2)ccn1,42%

# Test system: not listed separately
# Test: Antiproliferative activity against human HL-60(TB) cells assessed as cell growth at 10^-5 M after 48 hrs by sulforhodamine B assay
# Assay type: functional
# Settings: HL-60, 48 h, read-out: Activity
row,Compound,growth at 10 µM
1,CNC(=O)c1cc(Oc2ccc3nc(NC(=O)c4cc(C(F)(F)F)cc(C(F)(F)F)c4)sc3c2)ccn1,-47%

# Test system: not listed separately
# Test: Antiproliferative activity against human BT549 cells assessed as cell growth at 10^-5 M after 48 hrs by sulforhodamine B assay
# Assay type: functional
# Settings: BT-549, 48 h, read-out: Activity
row,Compound,growth at 10 µM
1,CNC(=O)c1cc(Oc2ccc3nc(NC(=O)c4cc(C(F)(F)F)cc(C(F)(F)F)c4)sc3c2)ccn1,5%

# Test system: not listed separately
# Test: Cytotoxicity against human SKBR3 cells assessed as growth inhibition at 10 uM after 2 days by MTT assay
# Assay type: functional
# Settings: SK-BR-3, 48 h, read-out: GI
row,Compound,inhibition of growth at 10 µM
1,CNC(=O)c1cc(Oc2ccc3nc(NC(=O)c4cc(C(F)(F)F)cc(C(F)(F)F)c4)sc3c2)ccn1,8.56%

# Test system: MDA-MB-435
# Test: Antiproliferative activity against human MDA-MB-435 cells assessed as cell growth at 10^-5 M after 48 hrs by sulforhodamine B assay
# Assay type: functional
# Settings: MDA-MB-435, 48 h, read-out: Activity
row,Compound,growth at 10 µM
1,CNC(=O)c1cc(Oc2ccc3nc(NC(=O)c4cc(C(F)(F)F)cc(C(F)(F)F)c4)sc3c2)ccn1,7%

# Test system: not listed separately
# Test: Antiproliferative activity against human UACC62 cells assessed as cell growth at 10^-5 M after 48 hrs by sulforhodamine B assay
# Assay type: functional
# Settings: UACC-62, 48 h, read-out: Activity
row,Compound,growth at 10 µM
1,CNC(=O)c1cc(Oc2ccc3nc(NC(=O)c4cc(C(F)(F)F)cc(C(F)(F)F)c4)sc3c2)ccn1,5%

# Test system: not listed separately
# Test: Antiproliferative activity against human LOXIMVI cells assessed as cell growth at 10^-5 M after 48 hrs by sulforhodamine B assay
# Assay type: functional
# Settings: LOX IMVI, read-out: Activity
row,Compound,growth at 10 µM
1,CNC(=O)c1cc(Oc2ccc3nc(NC(=O)c4cc(C(F)(F)F)cc(C(F)(F)F)c4)sc3c2)ccn1,11%

# Test system: not listed separately
# Test: Antiproliferative activity against human HCT116 cells assessed as cell growth at 10^-5 M after 48 hrs by sulforhodamine B assay
# Assay type: functional
# Settings: HCT-116, 48 h, read-out: Activity
row,Compound,growth at 10 µM
1,CNC(=O)c1cc(Oc2ccc3nc(NC(=O)c4cc(C(F)(F)F)cc(C(F)(F)F)c4)sc3c2)ccn1,7%

# Test system: not listed separately
# Test: Antiproliferative activity against human Caki1 cells assessed as cell growth at 10^-5 M after 48 hrs by sulforhodamine B assay
# Assay type: functional
# Settings: CAKI-1, 48 h, read-out: Activity
row,Compound,growth at 10 µM
1,CNC(=O)c1cc(Oc2ccc3nc(NC(=O)c4cc(C(F)(F)F)cc(C(F)(F)F)c4)sc3c2)ccn1,2%

# Test system: HT-29
# Test: Antiproliferative activity against human HT-29 cells assessed as cell growth at 10^-5 M after 48 hrs by sulforhodamine B assay
# Assay type: functional
# Settings: HT-29, 48 h, read-out: Activity
row,Compound,growth at 10 µM
1,CNC(=O)c1cc(Oc2ccc3nc(NC(=O)c4cc(C(F)(F)F)cc(C(F)(F)F)c4)sc3c2)ccn1,15%

# Test system: not listed separately
# Test: Cytotoxicity against human SKBR3 cells assessed as growth inhibition at 100 uM after 2 days by MTT assay
# Assay type: functional
# Settings: SK-BR-3, 48 h, read-out: GI
row,Compound,inhibition of growth at 100 µM
1,CNC(=O)c1cc(Oc2ccc3nc(NC(=O)c4cc(C(F)(F)F)cc(C(F)(F)F)c4)sc3c2)ccn1,80.4%

# Test system: not listed separately
# Test: Cytotoxicity against human HCT116 cells assessed as growth inhibition at 100 uM after 2 days by MTT assay
# Assay type: functional
# Settings: HCT-116, 48 h, read-out: GI
row,Compound,inhibition of growth at 100 µM
1,CNC(=O)c1cc(Oc2ccc3nc(NC(=O)c4cc(C(F)(F)F)cc(C(F)(F)F)c4)sc3c2)ccn1,76.9%

# Test system: A498
# Test: Antiproliferative activity against human A498 cells assessed as cell growth at 10^-5 M after 48 hrs by sulforhodamine B assay
# Assay type: functional
# Settings: A498, 48 h, read-out: Activity
row,Compound,growth at 10 µM
1,CNC(=O)c1cc(Oc2ccc3nc(NC(=O)c4cc(C(F)(F)F)cc(C(F)(F)F)c4)sc3c2)ccn1,-35%

# Test system: not listed separately
# Test: Antiproliferative activity against human COLO205 cells assessed as cell growth at 10^-5 M after 48 hrs by sulforhodamine B assay
# Assay type: functional
# Settings: COLO 205, 48 h, read-out: Activity
row,Compound,growth at 10 µM
1,CNC(=O)c1cc(Oc2ccc3nc(NC(=O)c4cc(C(F)(F)F)cc(C(F)(F)F)c4)sc3c2)ccn1,-9%

# Test system: T47D
# Test: Antiproliferative activity against human T47D cells assessed as cell growth at 10^-5 M after 48 hrs by sulforhodamine B assay
# Assay type: functional
# Settings: read-out: Activity
row,Compound,growth at 10 µM
1,CNC(=O)c1cc(Oc2ccc3nc(NC(=O)c4cc(C(F)(F)F)cc(C(F)(F)F)c4)sc3c2)ccn1,-4%

# Test system: not listed separately
# Test: Antiproliferative activity against human SF539 cells assessed as cell growth at 10^-5 M after 48 hrs by sulforhodamine B assay
# Assay type: functional
# Settings: SF-539, 48 h, read-out: Activity
row,Compound,growth at 10 µM
1,CNC(=O)c1cc(Oc2ccc3nc(NC(=O)c4cc(C(F)(F)F)cc(C(F)(F)F)c4)sc3c2)ccn1,12%

# Test system: Malme-3M
# Test: Antiproliferative activity against human MALME-3M cells assessed as cell growth at 10^-5 M after 48 hrs by sulforhodamine B assay
# Assay type: functional
# Settings: read-out: Activity
row,Compound,growth at 10 µM
1,CNC(=O)c1cc(Oc2ccc3nc(NC(=O)c4cc(C(F)(F)F)cc(C(F)(F)F)c4)sc3c2)ccn1,-17%

# Test system: not listed separately
# Test: Antiproliferative activity against human SF268 cells assessed as cell growth at 10^-5 M after 48 hrs by sulforhodamine B assay
# Assay type: functional
# Settings: SF-268, 48 h, read-out: Activity
row,Compound,growth at 10 µM
1,CNC(=O)c1cc(Oc2ccc3nc(NC(=O)c4cc(C(F)(F)F)cc(C(F)(F)F)c4)sc3c2)ccn1,11%

# Test system: KM12
# Test: Antiproliferative activity against human KM12 cells assessed as cell growth at 10^-5 M after 48 hrs by sulforhodamine B assay
# Assay type: functional
# Settings: KM12, 48 h, read-out: Activity
row,Compound,growth at 10 µM
1,CNC(=O)c1cc(Oc2ccc3nc(NC(=O)c4cc(C(F)(F)F)cc(C(F)(F)F)c4)sc3c2)ccn1,2%

# Test system: K562
# Test: Antiproliferative activity against human K562 cells assessed as cell growth at 10^-5 M after 48 hrs by sulforhodamine B assay
# Assay type: functional
# Settings: K562, 48 h, read-out: Activity
row,Compound,growth at 10 µM
1,CNC(=O)c1cc(Oc2ccc3nc(NC(=O)c4cc(C(F)(F)F)cc(C(F)(F)F)c4)sc3c2)ccn1,7%

# Test system: not listed separately
# Test: Antiproliferative activity against human OVCAR4 cells assessed as cell growth at 10^-5 M after 48 hrs by sulforhodamine B assay
# Assay type: functional
# Settings: OVCAR-4, 48 h, read-out: Activity
row,Compound,growth at 10 µM
1,CNC(=O)c1cc(Oc2ccc3nc(NC(=O)c4cc(C(F)(F)F)cc(C(F)(F)F)c4)sc3c2)ccn1,10%

# Test system: not listed separately
# Test: Antiproliferative activity against human HCC2998 cells assessed as cell growth at 10^-5 M after 48 hrs by sulforhodamine B assay
# Assay type: functional
# Settings: HCC 2998, 48 h, read-out: Activity
row,Compound,growth at 10 µM
1,CNC(=O)c1cc(Oc2ccc3nc(NC(=O)c4cc(C(F)(F)F)cc(C(F)(F)F)c4)sc3c2)ccn1,39%

# Test system: not listed separately
# Test: Antiproliferative activity against human DU145 cells assessed as cell growth at 10^-5 M after 48 hrs by sulforhodamine B assay
# Assay type: functional
# Settings: DU-145, 48 h, read-out: Activity
row,Compound,growth at 10 µM
1,CNC(=O)c1cc(Oc2ccc3nc(NC(=O)c4cc(C(F)(F)F)cc(C(F)(F)F)c4)sc3c2)ccn1,16%

# Test system: not listed separately
# Test: Antiproliferative activity against human HCT15 cells assessed as cell growth at 10^-5 M after 48 hrs by sulforhodamine B assay
# Assay type: functional
# Settings: HCT-15, 48 h, read-out: Activity
row,Compound,growth at 10 µM
1,CNC(=O)c1cc(Oc2ccc3nc(NC(=O)c4cc(C(F)(F)F)cc(C(F)(F)F)c4)sc3c2)ccn1,19%

# Test system: not listed separately
# Test: Cytotoxicity against human HCT116 cells assessed as growth inhibition at 10 uM after 2 days by MTT assay
# Assay type: functional
# Settings: HCT-116, 48 h, read-out: GI
row,Compound,inhibition of growth at 10 µM
1,CNC(=O)c1cc(Oc2ccc3nc(NC(=O)c4cc(C(F)(F)F)cc(C(F)(F)F)c4)sc3c2)ccn1,16.8%

# Test system: not listed separately
# Test: Antiproliferative activity against human UO31 cells assessed as cell growth at 10^-5 M after 48 hrs by sulforhodamine B assay
# Assay type: functional
# Settings: UO-31, 48 h, read-out: Activity
row,Compound,growth at 10 µM
1,CNC(=O)c1cc(Oc2ccc3nc(NC(=O)c4cc(C(F)(F)F)cc(C(F)(F)F)c4)sc3c2)ccn1,-4%

# Test system: NCI-H322M
# Test: Antiproliferative activity against human NCI-H322M cells assessed as cell growth at 10^-5 M after 48 hrs by sulforhodamine B assay
# Assay type: functional
# Settings: read-out: Activity
row,Compound,growth at 10 µM
1,CNC(=O)c1cc(Oc2ccc3nc(NC(=O)c4cc(C(F)(F)F)cc(C(F)(F)F)c4)sc3c2)ccn1,18%

# Test system: SK-MEL-28
# Test: Antiproliferative activity against human SK-MEL-28 cells assessed as cell growth at 10^-5 M after 48 hrs by sulforhodamine B assay
# Assay type: functional
# Settings: SK-MEL-28, 48 h, read-out: Activity
row,Compound,growth at 10 µM
1,CNC(=O)c1cc(Oc2ccc3nc(NC(=O)c4cc(C(F)(F)F)cc(C(F)(F)F)c4)sc3c2)ccn1,22%

# Test system: SK-MEL-2
# Test: Antiproliferative activity against human SK-MEL-2 cells assessed as cell growth at 10^-5 M after 48 hrs by sulforhodamine B assay
# Assay type: functional
# Settings: SK-MEL-2, 48 h, read-out: Activity
row,Compound,growth at 10 µM
1,CNC(=O)c1cc(Oc2ccc3nc(NC(=O)c4cc(C(F)(F)F)cc(C(F)(F)F)c4)sc3c2)ccn1,-19%

# Test system: not listed separately
# Test: Antiproliferative activity against human SNB19 cells assessed as cell growth at 10^-5 M after 48 hrs by sulforhodamine B assay
# Assay type: functional
# Settings: SNB-19, 48 h, read-out: Activity
row,Compound,growth at 10 µM
1,CNC(=O)c1cc(Oc2ccc3nc(NC(=O)c4cc(C(F)(F)F)cc(C(F)(F)F)c4)sc3c2)ccn1,16%

# Test system: not listed separately
# Test: Antiproliferative activity against human HOP92 cells assessed as cell growth at 10^-5 M after 48 hrs by sulforhodamine B assay
# Assay type: functional
# Settings: HOP-92, 48 h, read-out: Activity
row,Compound,growth at 10 µM
1,CNC(=O)c1cc(Oc2ccc3nc(NC(=O)c4cc(C(F)(F)F)cc(C(F)(F)F)c4)sc3c2)ccn1,-11%

# Test system: not listed separately
# Test: Antiproliferative activity against human HOP62 cells assessed as cell growth at 10^-5 M after 48 hrs by sulforhodamine B assay
# Assay type: functional
# Settings: HOP-62, 48 h, read-out: Activity
row,Compound,growth at 10 µM
1,CNC(=O)c1cc(Oc2ccc3nc(NC(=O)c4cc(C(F)(F)F)cc(C(F)(F)F)c4)sc3c2)ccn1,2%

# Test system: not listed separately
# Test: Antiproliferative activity against human OVCAR8 cells assessed as cell growth at 10^-5 M after 48 hrs by sulforhodamine B assay
# Assay type: functional
# Settings: OVCAR-8, 48 h, read-out: Activity
row,Compound,growth at 10 µM
1,CNC(=O)c1cc(Oc2ccc3nc(NC(=O)c4cc(C(F)(F)F)cc(C(F)(F)F)c4)sc3c2)ccn1,8%

# Test system: not listed separately
# Test: Antiproliferative activity against human RPMI8226 cells assessed as cell growth at 10^-5 M after 48 hrs by sulforhodamine B assay
# Assay type: functional
# Settings: RPMI-8226, 48 h, read-out: Activity
row,Compound,growth at 10 µM
1,CNC(=O)c1cc(Oc2ccc3nc(NC(=O)c4cc(C(F)(F)F)cc(C(F)(F)F)c4)sc3c2)ccn1,10%

# Test system: MDA-MB-468
# Test: Antiproliferative activity against human MDA-MB-468 cells assessed as cell growth at 10^-5 M after 48 hrs by sulforhodamine B assay
# Assay type: functional
# Settings: MDA-MB-468, 48 h, read-out: Activity
row,Compound,growth at 10 µM
1,CNC(=O)c1cc(Oc2ccc3nc(NC(=O)c4cc(C(F)(F)F)cc(C(F)(F)F)c4)sc3c2)ccn1,5%

# Test system: NCI-H522
# Test: Antiproliferative activity against human NCI-H522 cells assessed as cell growth at 10^-5 M after 48 hrs by sulforhodamine B assay
# Assay type: functional
# Settings: NCI-H522, 48 h, read-out: Activity
row,Compound,growth at 10 µM
1,CNC(=O)c1cc(Oc2ccc3nc(NC(=O)c4cc(C(F)(F)F)cc(C(F)(F)F)c4)sc3c2)ccn1,-6%
